“And” between values parts separate entries of the source, which are not always exact repeats. Equal values may be shown once. Toxic doses and inconclusive results are not listed.
Tested on: P388 leukemia ip, CD2F1 mice, survival T/C
Experiment: NCI In Vivo Anticancer Drug Screen. Data for tumor model P388 Leukemia (intraperitoneal) in CD2F1 (CDF1) mice
Details: endpoint: median survival time, higher = longer survival
Method in brief: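 Mice carrying the transplanted tumor received test compound or vehicle. Survival was recorded in each group, and the value is the treated-group measurement divided by that of the vehicle-treated control group.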

[1] = dose: 50.0 mg/kg/injection, schedule: Q01DX009 (ip), vehicle: saline with Tween-80
[2] = dose: 100.0 mg/kg/injection, schedule: Q01DX009 (ip), vehicle: saline with Tween-80
[3] = dose: 200.0 mg/kg/injection, schedule: Q01DX009 (ip), vehicle: saline with Tween-80
[4] = dose: 400.0 mg/kg/injection, schedule: Q01DX009 (ip), vehicle: saline with Tween-80
[5] = dose: 50.0 mg/kg/injection, schedule: Q01DX005 (ip), vehicle: saline with Tween-80
[6] = dose: 100.0 mg/kg/injection, schedule: Q01DX005 (ip), vehicle: saline with Tween-80
[7] = dose: 60.0 mg/kg/injection, schedule: Q01DX005 (ip), vehicle: saline with Tween-80
[8] = dose: 120.0 mg/kg/injection, schedule: Q01DX005 (ip), vehicle: saline with Tween-80
[9] = dose: 240.0 mg/kg/injection, schedule: Q01DX005 (ip), vehicle: saline with Tween-80
[10] = dose: 100.0 mg/kg/injection, schedule: Q01DX001 (ip), vehicle: saline with Tween-80
[11] = dose: 200.0 mg/kg/injection, schedule: Q01DX001 (ip), vehicle: saline with Tween-80
[12] = dose: 400.0 mg/kg/injection, schedule: Q01DX001 (ip), vehicle: saline with Tween-80
[13] = dose: 50.0 mg/kg/injection, schedule: Q01DX009 (ip), vehicle: Klucel (hydroxypropylcellulose) (HPC)
[14] = dose: 100.0 mg/kg/injection, schedule: Q01DX009 (ip), vehicle: Klucel (hydroxypropylcellulose) (HPC)
[15] = dose: 200.0 mg/kg/injection, schedule: Q01DX009 (ip), vehicle: Klucel (hydroxypropylcellulose) (HPC)
[16] = dose: 50.0 mg/kg/injection, schedule: Q01DX005 (ip), vehicle: Klucel (hydroxypropylcellulose) (HPC)
[17] = dose: 100.0 mg/kg/injection, schedule: Q01DX005 (ip), vehicle: Klucel (hydroxypropylcellulose) (HPC)

C=C1C(=O)C23C(O)CC4C5(C)CCCC4(C(O)OC5)C2C(OC(C)=O)CC1C3O (stereo not given)
T/C (dose: 4.0 mg/kg/injection, schedule: Q01DX009 (ip), vehicle: other): 115 % of control
T/C (dose: 4.0 mg/kg/injection, schedule: Q01DX009 (ip), vehicle: water): 114 % of control
T/C (dose: 8.0 mg/kg/injection, schedule: Q01DX009 (ip), vehicle: water): 116 % of control
T/C (dose: 16.0 mg/kg/injection, schedule: Q01DX009 (ip), vehicle: other): 122 % of control
T/C (dose: 16.0 mg/kg/injection, schedule: Q01DX009 (ip), vehicle: water): 114 % of control
T/C (dose: 32.0 mg/kg/injection, schedule: Q01DX009 (ip), vehicle: water): 107 % of control

CCOC(=O)c1ccc(NC(=O)OCc2ccccc2)cc1
T/C [1]: 91 % of control
T/C [2]: 86 % of control
T/C [3]: 96 % of control
T/C [4]: 107 % of control

C#Cc1cccc(N=Cc2cc([N+](=O)[O-])ccc2O)c1
T/C [5]: 100 % of control
T/C [6]: 99 % of control
T/C (dose: 200.0 mg/kg/injection, schedule: Q01DX005 (ip), vehicle: saline with Tween-80): 93 % of control

COc1cccc(O)c1O
T/C (dose: 100.0 mg/kg/injection, schedule: Q01DX009 (ip), vehicle: saline): 101 % of control
T/C (dose: 200.0 mg/kg/injection, schedule: Q01DX009 (ip), vehicle: saline): 100 % of control
T/C (dose: 400.0 mg/kg/injection, schedule: Q01DX009 (ip), vehicle: saline): 111 % of control

O=C1CCC(C2(O)c3ccccc3-c3ccccc32)C(=O)N1 (stereo not given)
T/C [7]: 95 % of control
T/C [8]: 96 % of control
T/C [9]: 95 % of control

C1CCCc2c(-c3n[nH]c4c3CCCCCC4)n[nH]c2CC1
T/C [7]: 100 % of control
T/C [8]: 95 % of control
T/C [9]: 100 % of control

CCN(CC)CCC(=O)/C=C/c1ccccc1
T/C (dose: 25.0 mg/kg/injection, schedule: Q01DX009 (ip), vehicle: saline): 111 % of control
T/C (dose: 50.0 mg/kg/injection, schedule: Q01DX009 (ip), vehicle: saline): 116 % of control and 118 % of control

O=C(O)Cn1/c(=N\N=C\c2ccc([N+](=O)[O-])cc2)sc2ccccc21
T/C [10]: 91 % of control
T/C [11]: 89 % of control
T/C [12]: 99 % of control

[CH3][Sn]([CH3])([Cl])[CH2]CC[CH2][Ge]([Cl])([Cl])[Cl]
T/C (dose: 0.78 mg/kg/injection, schedule: Q01DX009 (ip), vehicle: saline): 114 % of control
T/C (dose: 1.56 mg/kg/injection, schedule: Q01DX009 (ip), vehicle: saline): 119 % of control

CCOC12NC(=O)N(C)C1(OCC)C(=O)N(C)C(=O)N2C (stereo not given)
T/C [1]: 91 % of control
T/C [2]: 92 % of control
T/C [3]: 88 % of control

Cc1ccc(C(=O)CC2(O)C(=O)Nc3ccccc32)cc1 (stereo not given)
T/C [13]: 96 % of control
T/C [14]: 92 % of control
T/C [15]: 87 % of control

COC(=O)NC1C(=O)CCC(=O)C1C(N)=O (stereo not given)
T/C (dose: 7.5 mg/kg/injection, schedule: Q01DX005 (ip), vehicle: saline with Tween-80): 86 % of control
T/C (dose: 15.0 mg/kg/injection, schedule: Q01DX005 (ip), vehicle: saline with Tween-80): 98 % of control

N#Cc1cnn(-c2cccc(Cl)c2)c1-n1cccc1
T/C [1]: 100 % of control
T/C [2]: 100 % of control
T/C [3]: 93 % of control

CN(C)c1ccc(C2N(C)CCN2C)cc1
T/C [7]: 93 % of control
T/C [8]: 99 % of control
T/C [9]: 103 % of control

O=C1c2ccc([N+](=O)[O-])cc2C(=O)N1CC[P+](c1ccccc1)(c1ccccc1)c1ccccc1
T/C (dose: 0.78 mg/kg/injection, schedule: Q01DX009 (ip), vehicle: water): 100 % of control
T/C (dose: 1.56 mg/kg/injection, schedule: Q01DX009 (ip), vehicle: water): 100 % of control
T/C (dose: 3.13 mg/kg/injection, schedule: Q01DX009 (ip), vehicle: water): 103 % of control
T/C (dose: 6.25 mg/kg/injection, schedule: Q01DX009 (ip), vehicle: water): 98 % of control
T/C (dose: 12.5 mg/kg/injection, schedule: Q01DX009 (ip), vehicle: water): 98 % of control
T/C (dose: 25.0 mg/kg/injection, schedule: Q01DX009 (ip), vehicle: water): 106 % of control and 107 % of control

Cc1c(C#N)sc2ccccc12
T/C (dose: 25.0 mg/kg/injection, schedule: Q01DX009 (ip), vehicle: other): 96 % of control
T/C (dose: 50.0 mg/kg/injection, schedule: Q01DX009 (ip), vehicle: other): 105 % of control
T/C (dose: 100.0 mg/kg/injection, schedule: Q01DX009 (ip), vehicle: other): 89 % of control

CN(C)CCO[Si](C)(C)[CH2][Sn]([CH3])([CH3])[CH3]
T/C (dose: 60.0 mg/kg/injection, schedule: Q01DX005 (ip), vehicle: saline): 108 % of control
T/C (dose: 120.0 mg/kg/injection, schedule: Q01DX005 (ip), vehicle: saline): 105 % of control

S=C1N(c2ccc(Cl)cc2)C2=C(N=Nc3ccccc3Cl)C(=Nc3ccccc3S2)N1c1ccccn1
T/C [6]: 108 % of control

O=C(/C=C/c1ccccc1)OCC1=C[C@@H](O)[C@@H]2C=CO[C@@H](OC3OC(CO)C(O)C(O)C3O)[C@H]12 (stereo not given in full)
T/C (dose: 12.5 mg/kg/injection, schedule: Q01DX005 (ip), vehicle: Klucel (hydroxypropylcellulose) (HPC)): 100 % of control
T/C (dose: 25.0 mg/kg/injection, schedule: Q01DX005 (ip), vehicle: Klucel (hydroxypropylcellulose) (HPC)): 93 % of control
T/C [16]: 112 % of control
T/C [17]: 118 % of control
T/C (dose: 200.0 mg/kg/injection, schedule: Q01DX005 (ip), vehicle: Klucel (hydroxypropylcellulose) (HPC)): 115 % of control

NNC(=O)c1cc2c3ccccc3ncc2c2ccccc12
T/C [10]: 86 % of control
T/C [11]: 95 % of control
T/C [12]: 113 % of control

CCOC(=O)c1sc2nc(C)[nH]c(=O)c2c1C
T/C [5]: 99 % of control

CC(O)CNCCNc1ccc(NCCNCC(C)O)c2c1C(=O)c1c(O)ccc(O)c1C2=O (stereo not given)
T/C (dose: 0.5 mg/kg/injection, schedule: Q01DX009 (ip), vehicle: acid diluted with saline): 165 % of control
T/C (dose: 1.0 mg/kg/injection, schedule: Q01DX009 (ip), vehicle: acid diluted with saline): 150 % of control
T/C (dose: 2.0 mg/kg/injection, schedule: Q01DX009 (ip), vehicle: acid diluted with saline): 200 % of control
T/C (dose: 4.0 mg/kg/injection, schedule: Q01DX009 (ip), vehicle: acid diluted with saline): 234 % of control
T/C (dose: 8.0 mg/kg/injection, schedule: Q01DX009 (ip), vehicle: acid diluted with saline): 202 % of control

ClC1(c2ccccc2)c2ccc(Br)cc2-c2cc(Br)ccc21
T/C (dose: 65.0 mg/kg/injection, schedule: Q01DX009 (ip), vehicle: Klucel (hydroxypropylcellulose) (HPC)): 109 % of control
T/C (dose: 100.0 mg/kg/injection, schedule: Q04DX003 (ip), vehicle: saline with Tween-80): 118 % of control
T/C [3]: 109 % of control
T/C (dose: 200.0 mg/kg/injection, schedule: Q04DX003 (ip), vehicle: saline with Tween-80): 122 % of control
T/C [4]: 113 % of control
T/C (dose: 400.0 mg/kg/injection, schedule: Q04DX003 (ip), vehicle: saline with Tween-80): 118 % of control

c1ccc(Nc2nnnn2-c2ccccc2)cc1
T/C (dose: 25.0 mg/kg/injection, schedule: Q01DX005 (ip), vehicle: saline with Tween-80): 100 % of control
T/C [5]: 100 % of control
T/C [6]: 104 % of control

CCCCCCCCCCCC(=O)c1c(O)c2ccccc2oc1=O
T/C [5]: 95 % of control
T/C [6]: 94 % of control

CN=C(NCCCOC)c1ccc(NC(=O)Nc2ccc(NC(=O)Nc3ccc(C(=NC)NCCCOC)cc3)cc2)cc1
T/C [16]: 150 % of control

Cc1cc2c(=O)cc(-c3ccc(Cl)cc3)oc2c(C#N)c1C
T/C (dose: 60.0 mg/kg/injection, schedule: Q01DX005 (ip), vehicle: Klucel (hydroxypropylcellulose) (HPC)): 89 % of control
T/C (dose: 120.0 mg/kg/injection, schedule: Q01DX005 (ip), vehicle: Klucel (hydroxypropylcellulose) (HPC)): 93 % of control
T/C (dose: 240.0 mg/kg/injection, schedule: Q01DX005 (ip), vehicle: Klucel (hydroxypropylcellulose) (HPC)): 100 % of control

NS(=O)(=O)c1c[nH]c(=O)[nH]c1=O
T/C [13]: 105 % of control
T/C [14]: 93 % of control
T/C [15]: 97 % of control
T/C (dose: 400.0 mg/kg/injection, schedule: Q01DX009 (ip), vehicle: Klucel (hydroxypropylcellulose) (HPC)): 91 % of control

C1CNC(N2CCN(C3=NCCN3)CC2)=N1
T/C [16]: 104 % of control
T/C [17]: 100 % of control
